Article PMC6917776, “Discovery of a chemical probe for PRDM9” (Nature Communications, 2019)
Where “and” joins values, the source holds several entries; their conditions need not be identical. Equal entries are not always repeated.

How the values were obtained:
Format in all cases: cell-based
HEK293T cells = experiment: Cell growth, IncuCyte ZOOM cell number; details: for HEK293T cell growth, toxicity (in words): 24 h of treatment; for HEK293T cytotoxicity (in words): 4 days of treatment; for Cell growth (Cell#): technical replicates
Protocol: HEK293T or MCF7 cells were seeded on 96-well plates and the following day treated with compounds for indicated time. Cell number was determined with Vybrant® DyeCycle™ Green using IncuCyte™ ZOOM live cell imaging device (Essen Bioscence) and analyzed with IncuCyte™ ZOOM (2015A) software.
(top graphs) and MCF7 cells (bottom graph). Cells were treated with compounds for 2 and 4 days or 5 days in case of MCF7. Cell number was measured using IncuCyte™ ZOOM live cell imaging device. The results are MEAN +/- SEM, n=3 (technical replicates). Source data are provided as a Source Data file.
(§1) (1 picture or pasted object on this page, not shown here)

PRDM9 = PRDM9 (Homo sapiens, UniProt Q9NQV7); experiment: PRDM9 cellular assay: H3K4me3 of endogenous histone H3 in HEK293T cells (western blot); details: 20 h, technical replicates
Protocol: HEK293T (kind gift from Sam Benchimol, York University), or MCF7 (ATCC® HTB-22™), cells were plated (12 well plates) and next day co-transfected with 0.1 (HEK293T) or 0.2 (MCF7) µg of GFP-tagged histone H3 and with 0.1 (HEK293T) or 0.2 (MCF7) µg of Flag-tagged PRDM9/PRDM9 catalytic mutant (Y357S) and 0.8 or 0.6 µg of empty vector using JetPRIME® transfection reagent, following manufacturer instructions. After 4 h media was removed and cells were treated with compounds for 20 h. Next day, cells were lysed in lysis buffer (20 mM Tris-HCl pH 8, 150 mM NaCl, 1 mM EDTA, 10 mM MgCl2, 0.5% TritonX-100, 12.5 U mL^−1 benzonase (Sigma), complete EDTA-free protease inhibitor cocktail (Roche)). After 2 min incubation at RT, SDS was added to final 1% concentration. Cell lysates were analyzed in western blot for GFP and H3K4me3 levels. All cell lines were mycoplasma negative, as determined by MycoAlert™ Mycoplasma Detection Kit (Lonza).
Total cell lysates were resolved in 4–12% Bis-Tris Protein Gels (Invitrogen) and transferred in for 1.5 h (80 V) onto PVDF membrane (Millipore) in Tris-Glycine transfer buffer containing 20% MeOH and 0.05% SDS. Blots were blocked for 1 h in blocking buffer (5% milk in PBS) and incubated with primary antibodies anti-GFP (1:3000, Clontech # 632381), anti-H3K4me3 (1:1000, Millipore, #04-745), anti-histone H3 (1:2000, #ab10799, Abcam), anti-Flag (1:5000, #F4799, Sigma) in blocking buffer (5% BSA in 0.1% Tween 20 PBS) overnight at 4 °C. After five washes with 0.1% Tween 20 PBS the blots were incubated with goat-anti rabbit (IR800) and donkey anti-mouse (IR 680) antibodies (1:5000) in Odyssey Blocking Buffer (LiCor) for 1 h at RT and washed five times with 0.1% Tween 20 PBS. The signal was read on an Odyssey scanner (LiCor) at 800 nm and 700 nm and analyzed with Image Studio Ver.5.2 software. […]
endogenous histone H3. (a) Western blot analysis of cellular lysates prepared from HEK293T cells transfected with PRDM9-FLAG and treated with the indicated concentration of compound for 20 h. Mut denotes PRDM9 catalytic mutant (Y357S). (b) Non-linear fit of H3K4me3 fluorescence intensities normalized to intensities of histone H3 is shown. The results are MEAN +/- SEM of n=3 (technical replicates). Source data are provided as a Source Data file .
as §1

Opiate µ receptor (MOR) = biological target: T1, Opiate µ receptor (MOR) (Homo sapiens, UniProt P35372); experiment: GPCR functional activity, GloSensor assay (agonist and antagonist mode); details: for MOR Gi Agonist, raw signal: replicates 1-3; for MOR Tango Antagonist, raw signal: replicates 1-4
T1 construct: NIMH Psychoactive Drug Screening Program, University of North Carolina at Chapel Hill
Text: (§2) Supplementary Figure 5. Assessment of GPCR functional activity. […]
(§3) profiles were generously provided by the National Institute of Mental Health’s (NIMH)
(§4) Psychoactive Drug Screening Program, (Contract # HHSN-271-2013-00017-C) directed by B.L.
(§5) Roth, University of North Carolina at Chapel Hill and Project Officer J. Driscoll at NIMH,
(§6) Bethesda, Maryland, USA. Further details available at https://pdspdb.unc.edu/pdspWeb/.
(§7) MOR stands for “Opiate µ receptor”. […]
(§8) […] Source data are provided as a

Adrenergic α2B = biological target: T2, Adrenergic α2B (Homo sapiens, UniProt P18089); experiment: as above
T2 construct: NIMH Psychoactive Drug Screening Program, University of North Carolina at Chapel Hill
Text: as §2, §3, §4, §5, §6, §7, §8

[1] = HEK293, 2 day treatement, 10 µM
[2] = HEK293, 4 day treatement, 0.3 µM
[3] = HEK293, 4 day treatement, 10 µM

Sequence of PRDM9 (Q9NQV7 whole entry): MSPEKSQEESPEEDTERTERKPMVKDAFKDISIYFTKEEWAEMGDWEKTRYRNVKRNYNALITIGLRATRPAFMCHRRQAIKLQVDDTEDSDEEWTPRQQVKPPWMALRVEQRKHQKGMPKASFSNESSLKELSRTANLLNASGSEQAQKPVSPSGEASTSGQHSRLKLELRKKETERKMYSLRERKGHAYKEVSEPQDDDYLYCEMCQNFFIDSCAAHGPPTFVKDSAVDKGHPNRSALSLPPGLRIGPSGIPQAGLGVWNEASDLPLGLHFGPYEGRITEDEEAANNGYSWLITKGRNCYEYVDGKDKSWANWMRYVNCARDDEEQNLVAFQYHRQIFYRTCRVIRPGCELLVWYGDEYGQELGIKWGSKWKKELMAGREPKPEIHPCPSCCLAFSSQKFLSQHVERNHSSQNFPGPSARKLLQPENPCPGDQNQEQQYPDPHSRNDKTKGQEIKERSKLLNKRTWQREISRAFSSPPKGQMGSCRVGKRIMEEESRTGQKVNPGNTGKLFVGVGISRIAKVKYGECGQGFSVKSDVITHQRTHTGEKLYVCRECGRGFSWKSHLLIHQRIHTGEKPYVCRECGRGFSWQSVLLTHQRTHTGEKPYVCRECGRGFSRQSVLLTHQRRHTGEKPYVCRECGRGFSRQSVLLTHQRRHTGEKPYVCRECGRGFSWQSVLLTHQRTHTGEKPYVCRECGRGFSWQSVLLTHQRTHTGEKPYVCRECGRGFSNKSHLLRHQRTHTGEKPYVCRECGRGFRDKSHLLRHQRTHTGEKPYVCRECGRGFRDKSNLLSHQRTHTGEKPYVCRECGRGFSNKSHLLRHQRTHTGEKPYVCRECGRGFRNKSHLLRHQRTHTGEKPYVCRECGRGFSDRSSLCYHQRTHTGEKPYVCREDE
T1 sequence (P35372 whole entry): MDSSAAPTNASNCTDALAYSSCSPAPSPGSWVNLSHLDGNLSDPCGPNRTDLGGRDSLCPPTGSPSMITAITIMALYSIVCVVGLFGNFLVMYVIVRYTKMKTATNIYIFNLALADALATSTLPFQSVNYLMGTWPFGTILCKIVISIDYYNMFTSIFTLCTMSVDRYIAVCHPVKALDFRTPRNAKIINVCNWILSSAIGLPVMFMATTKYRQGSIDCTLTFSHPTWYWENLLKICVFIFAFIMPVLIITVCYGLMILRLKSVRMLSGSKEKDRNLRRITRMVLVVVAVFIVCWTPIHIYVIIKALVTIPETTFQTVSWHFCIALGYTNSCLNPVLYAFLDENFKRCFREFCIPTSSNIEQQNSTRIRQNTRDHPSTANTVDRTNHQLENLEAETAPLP
T2 sequence (P18089 whole entry): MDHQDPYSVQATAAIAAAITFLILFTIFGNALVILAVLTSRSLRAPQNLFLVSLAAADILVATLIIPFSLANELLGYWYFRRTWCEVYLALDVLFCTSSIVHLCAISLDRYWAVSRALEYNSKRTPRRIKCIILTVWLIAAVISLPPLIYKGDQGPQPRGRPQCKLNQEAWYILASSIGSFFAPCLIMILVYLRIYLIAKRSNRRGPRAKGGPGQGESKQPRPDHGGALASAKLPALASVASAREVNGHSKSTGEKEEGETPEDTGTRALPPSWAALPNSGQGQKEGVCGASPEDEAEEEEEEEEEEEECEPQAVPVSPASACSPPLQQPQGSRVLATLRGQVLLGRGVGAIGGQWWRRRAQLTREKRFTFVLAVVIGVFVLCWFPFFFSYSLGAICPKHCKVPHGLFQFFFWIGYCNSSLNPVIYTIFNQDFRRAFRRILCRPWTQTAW

Compound: COc1cc(OC)cc(-c2noc(N3CCN(C)C4(CCN(c5ccccc5)CC4)C3)n2)c1 [MRK-740-NC]
- HEK293T cell growth, toxicity (in words) (HEK293T cells; 10 µM): some toxicity
- HEK293T cytotoxicity (in words) (HEK293T cells; 10 µM): cytotoxicity was observed
- Cell growth (Cell#) (HEK293T cells; HEK293, 2 day treatement, 1 µM): 131.284 % control and 117.713 % control and 90.9177 % control
- Cell growth (Cell#) (HEK293T cells; HEK293, 2 day treatement, 3 µM): 132.069 % control and 120.302 % control and 91.1588 % control
- Cell growth (Cell#) (HEK293T cells; HEK293, 2 day treatement, 5 µM): 115.543 % control and 108.951 % control and 80.3231 % control
- Cell growth (Cell#) (HEK293T cells; [1]): 46.5996 % control and 35.6574 % control and 30.4049 % control
- Cell growth (Cell#) (HEK293T cells; [2]): 101.286 % control and 102.18 % control and 103.656 % control
- Cell growth (Cell#) (HEK293T cells; HEK293, 4 day treatement, 1 µM): 105.145 % control and 104.341 % control and 101.342 % control
- Cell growth (Cell#) (HEK293T cells; HEK293, 4 day treatement, 3 µM): 105.432 % control and 102.893 % control and 103.306 % control
- Cell growth (Cell#) (HEK293T cells; [3]): 42.1082 % control and 39.7636 % control and 39.5419 % control

Compound: COc1cc(OC)cc(-c2noc(N3CCN(C)C4(CCN(c5ccnc(C)c5)CC4)C3)n2)c1 [MRK-740]
- HEK293T cell growth, toxicity (in words) (HEK293T cells; 10 µM): some toxicity
- HEK293T cytotoxicity (in words) (HEK293T cells; 10 µM): cytotoxicity was observed
- Cell growth (Cell#) (HEK293T cells; HEK293, 2 day treatement, 1 µM): 84.8973 % control and 124.131 % control and 116.53 % control
- Cell growth (Cell#) (HEK293T cells; HEK293, 2 day treatement, 3 µM): 73.843 % control and 124.215 % control and 124.008 % control
- Cell growth (Cell#) (HEK293T cells; HEK293, 2 day treatement, 5 µM): 68.7811 % control and 110.358 % control and 122.96 % control
- Cell growth (Cell#) (HEK293T cells; [1]): 55.0249 % control and 90.6823 % control and 84.1686 % control
- Cell growth (Cell#) (HEK293T cells; [2]): 115.326 % control and 111.309 % control and 103.491 % control
- Cell growth (Cell#) (HEK293T cells; HEK293, 4 day treatement, 1 µM): 115.93 % control and 116.134 % control and 111.504 % control
- Cell growth (Cell#) (HEK293T cells; HEK293, 4 day treatement, 3 µM): 115.346 % control and 109.669 % control and 118.771 % control
- Cell growth (Cell#) (HEK293T cells; [3]): 47.3939 % control and 45.1607 % control and 39.6851 % control
- H3K4me3/endogenousH3 - western blot (PRDM9; 0.256 µM): 93.518 % control and 101.99 % control and 96.0071 % control
- H3K4me3/endogenousH3 - western blot (PRDM9; 0.64 µM): 97.4527 % control and 97.7629 % control and 94.1624 % control
- H3K4me3/endogenousH3 - western blot (PRDM9; 1.6 µM): 94.826 % control and 91.8208 % control and 93.3575 % control
- H3K4me3/endogenousH3 - western blot (PRDM9; 4 µM): 91.0956 % control and 84.7178 % control and 90.9069 % control
- H3K4me3/endogenousH3 - western blot (PRDM9; 10 µM): 88.6856 % control and 79.3861 % control and 84.4562 % control
- Functional activity (in words) (Opiate µ receptor (MOR); agonist and antagonist mode): some potential agonistic activity
- MOR Gi Agonist, raw signal (Opiate µ receptor (MOR); log[MRK-740] -4.52): 523.998 and 475.715 and 479.854
- MOR Tango Antagonist, raw signal (Opiate µ receptor (MOR); log[MRK-740] -4.52): 6964.63 and 7700.23 and 6817.3 and 8343.47
- MOR Gi Agonist, raw signal (Opiate µ receptor (MOR); log[MRK-740] -5): 470.197 and 394.324 and 410.878
- MOR Tango Antagonist, raw signal (Opiate µ receptor (MOR); log[MRK-740] -5): 5111.95 and 4601.78 and 6359.89 and 4362.1
- MOR Gi Agonist, raw signal (Opiate µ receptor (MOR); log[MRK-740] -5.52): 427.432 and 384.668 and 477.095
- MOR Tango Antagonist, raw signal (Opiate µ receptor (MOR); log[MRK-740] -5.52): 5940.98 and 5705.68 and 7225.22 and 4368.69
- MOR Gi Agonist, raw signal (Opiate µ receptor (MOR); log[MRK-740] -6): 441.227 and 430.191 and 452.263
- MOR Tango Antagonist, raw signal (Opiate µ receptor (MOR); log[MRK-740] -6): 5577.04 and 4612.78 and 4219.16 and 5663.9
- MOR Gi Agonist, raw signal (Opiate µ receptor (MOR); log[MRK-740] -6.52): 489.51 and 460.54 and 466.058
- MOR Tango Antagonist, raw signal (Opiate µ receptor (MOR); log[MRK-740] -6.52): 4965.72 and 6716.14 and 4770.01 and 6856.88
- MOR Gi Agonist, raw signal (Opiate µ receptor (MOR); log[MRK-740] -7): 347.421 and 472.956 and 397.083
- MOR Tango Antagonist, raw signal (Opiate µ receptor (MOR); log[MRK-740] -7): 4544.61 and 3827.75 and 5625.42 and 6334.6
- MOR Gi Agonist, raw signal (Opiate µ receptor (MOR); log[MRK-740] -7.52): 452.263 and 417.776 and 391.565
- MOR Tango Antagonist, raw signal (Opiate µ receptor (MOR); log[MRK-740] -7.52): 9293.5 and 6501.73 and 7215.33 and 6591.89
- MOR Gi Agonist, raw signal (Opiate µ receptor (MOR); log[MRK-740] -8): 452.263 and 390.186 and 408.119
- MOR Tango Antagonist, raw signal (Opiate µ receptor (MOR); log[MRK-740] -8): 5778.25 and 5276.87 and 5467.09 and 6480.84
- MOR Gi Agonist, raw signal (Opiate µ receptor (MOR); log[MRK-740] -8.52): 394.631 and 390.374 and 448.545
- MOR Tango Antagonist, raw signal (Opiate µ receptor (MOR); log[MRK-740] -8.52): 5605.48 and 3120.04 and 6717.48 and 4672.02
- MOR Gi Agonist, raw signal (Opiate µ receptor (MOR); log[MRK-740] -9): 413.075 and 366.255 and 451.383
- MOR Tango Antagonist, raw signal (Opiate µ receptor (MOR); log[MRK-740] -9): 3692.19 and 5665.93 and 3690.78 and 6270.43
- MOR Gi Agonist, raw signal (Opiate µ receptor (MOR); log[MRK-740] -9.52): 424.425 and 437.195 and 438.613
- MOR Tango Antagonist, raw signal (Opiate µ receptor (MOR); log[MRK-740] -9.52): 5109.22 and 7289.66 and 4705.76 and 4478.02
- MOR Gi Agonist, raw signal (Opiate µ receptor (MOR); log[MRK-740] -10): 492.528 and 401.725 and 449.964
- MOR Tango Antagonist, raw signal (Opiate µ receptor (MOR); log[MRK-740] -10): 3780.75 and 4352.9 and 3641.58 and 3605.03
- MOR Gi Agonist, raw signal (Opiate µ receptor (MOR); log[MRK-740] -10.52): 408.819 and 508.135 and 464.152
- MOR Tango Antagonist, raw signal (Opiate µ receptor (MOR); log[MRK-740] -10.52): 4105.49 and 4174.37 and 7219.37 and 6121.41
- MOR Gi Agonist, raw signal (Opiate µ receptor (MOR); log[MRK-740] -11): 516.647 and 510.972 and 540.767
- MOR Tango Antagonist, raw signal (Opiate µ receptor (MOR); log[MRK-740] -11): 4295.27 and 3517.87 and 4659.37 and 5872.58
- MOR Gi Agonist, raw signal (Opiate µ receptor (MOR); log[MRK-740] -11.52): 627.314 and 488.271 and 566.306
- MOR Tango Antagonist, raw signal (Opiate µ receptor (MOR); log[MRK-740] -11.52): 8307.51 and 6114.38 and 4948.96 and 5192.17
- MOR Gi Agonist, raw signal (Opiate µ receptor (MOR); log[MRK-740] -12): 684.066 and 560.63 and 516.647
- MOR Tango Antagonist, raw signal (Opiate µ receptor (MOR); log[MRK-740] -12): 4510.35 and 4657.96 and 5814.94 and 6055.34
- Functional activity (in words) (Adrenergic α2B): no functional activity
